Measurements taken from patent US10815257B2, “Polymorph of sodium neridronate and preparation process thereof” (ABIOGEN PHARMA S.P.A., priority 2018, dated 2020).

What was measured:
Format in all cases: physicochemical
[1] = Hygroscopicity study by Dynamic Vapor Sorption (DVS); conditions: 25° C.; for mass variation (humidity absorption, DVS): 90% relative humidity (RH); for behavior in DVS hygroscopicity study: RH 0 to 90%
Description: The Hygroscopicity study was carried out on samples of polymorphic crystalline forms F, B and E of sodium neridronate by measuring the humidity absorption kinetics, in a range of relative humidity (RH %) comprised between 0 and 90%, at the temperature of 25° C.

[2] = Stability study at 40° C. and 75% RH monitored by XRD; conditions: for stability of crystalline form over time (XRD): eight weeks observation
Description: The stability study was carried out on samples of crystalline polymorphic forms B, E, and the hemihydrate form F of sodium neridronate, stored in an environment characterized by 75% relative humidity (RH) and a temperature of 40° C.
The observation of the sample stability lasted for a period of eight weeks, during which once a week, […], an aliquot was taken from each sample and subjected to XRD analysis to observe any possible crystalline changes of the various samples over time.

[3] = Thermodynamic solubility test; conditions: buffer solution pH 7.4, 37° C., stirring about 500 rpm
Description: For this purpose, a dissolution test was carried out in a buffer solution at pH 7.4. The thermodynamic solubility evaluation was performed leaving the sample in the buffer solution, under magnetic stirring at about 500 rpm, for a period of 24 hours, at a temperature of 37° C.

Compound | mass variation (humidity absorption, DVS) [1] | behavior in DVS hygroscopicity study [1] | onset of conversion into crystalline hemihydrate form F (XRD) [2] | extent of conversion into form F at the end of the observation period (XRD) ([2]; eight weeks) | stability of crystalline form over time (XRD) [2] | thermodynamic solubility ([3]; 24 hours) [mg/mL] | extent of conversion into form F after seven weeks (XRD) ([2]; seven weeks) | solubility thermodynamic at 24 h ([3]; buffer solution, 37 °C, pH 7.4, aqueous buffer, thermodynamic from solid) [mg/mL]
NCCCCCC(O)(P(=O)([O-])O)P(=O)(O)O.[Na+] [form B, sodium neridronate] | about 5% | hydrophilic behavior | begin to convert into the crystalline hemihydrate form F already after a week | only partially converted | not stable over time | 92.97 | – | –
NCCCCCC(O)(P(=O)([O-])O)P(=O)(O)O.[Na+] [form E, sodium neridronate] | about 1% | hydrophilic behavior | begin to convert into the crystalline hemihydrate form F already after a week | – | not stable over time | – | completely converted into the crystalline hemihydrate form F | –
NCCCCCC(O)(P(=O)([O-])O)P(=O)(O)O.[Na+] [form F, sodium neridronate] | without any appreciable mass variation | hydrophobic behavior | – | – | stable even after eight weeks conditioning | – | – | 93.7
